For one experiment, the target named is T1, overexpressed PRDX6 (Homo sapiens, UniProt P30041).
T1 sequence (P30041 2-224): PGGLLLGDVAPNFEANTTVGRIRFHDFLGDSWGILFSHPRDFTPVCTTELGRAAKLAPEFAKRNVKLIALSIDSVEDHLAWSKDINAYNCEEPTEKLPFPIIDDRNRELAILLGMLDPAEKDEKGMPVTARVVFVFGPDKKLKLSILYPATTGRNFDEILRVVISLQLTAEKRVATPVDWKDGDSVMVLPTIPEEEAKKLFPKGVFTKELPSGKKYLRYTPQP
Put plainly: H2O2 clearance. The class given is cell-based.

In experiment [1] the target is T2, PRDX6 with GFP tag (Homo sapiens, UniProt P30041, E210A).
T2 sequence (P30041 2-224 E210A): T1 sequence (P30041 2-224) with E209A
Put plainly: cellular microscale thermophoresis, GFP fusion. (In general: Microscale thermophoresis detects binding through changes in fluorescence in a small temperature gradient.)

The target of experiment [2] is T3, PRDX6 with GFP tag (Homo sapiens, UniProt P30041, C91A).
T3 sequence (P30041 2-224 C91A): T1 sequence (P30041 2-224) with C90A
Nature of the experiment: cellular microscale thermophoresis, GFP fusion.

From paper doi:10.1101/2024.09.09.611999v1 (biorxiv, 2024) come the findings set out here.

Substitutions are numbered along the chain they refer to. Where two headings read alike, the source gives them in different places.

The IC50 is the concentration that gives 50% inhibition. For orientation: Kd means the concentration at which binding is half-saturated. A higher Kd goes with weaker binding.

On overexpressed PRDX6, `O=c1cc(-c2ccc(O)cc2)oc2cc(O)cc(O)c12` [apigenin, 4’,5,7-trihydroxyflavone] displayed an IC50 of 49.5 µM. In addition, the equilibrium dissociation constant (Kd) at PRDX6 with GFP tag [1] turned out to be 14.5 µM; on PRDX6 with GFP tag [2], 10.9 µM.
Take `CC(=O)N[C@@H](CS)C(=O)O` [NAC, reference compound]: it took 15.5 µM to reach half-maximal inhibition against overexpressed PRDX6 (substrate H2O2) (IC50).
